Tests used:
[1] = test system: Colo205 cells; test: Colo-205 cell proliferation assay (resazurin); assay type: cell-based; settings: Homo sapiens; Colo-205 cells, V600E mutation; read-out: Cell Proliferation Inhibition IC50, nM Colo-205
Protocol: (§1) Colo205 cells (catalog #HB-8307) are obtained from the American Type Culture Collection (ATCC, Manassas, Va.). Briefly, cells are grown in RPMI 1640 supplemented with 10% characterized fetal bovine serum (Invitrogen, Carlsbad, Calif.), 1 mM sodium pyruvate, and 1% Penicillin/Streptomycin/L-Glutamine at 37 degrees Celsius, 5% CO2, and 95% humidity. Cells are allowed to expand until reaching 30-60% confluency at which point they are subcultured or harvested for assay use. A serial dilution of test compound is dispensed into a 384-well black clear bottom plate in triplicate. One thousand two-hundred fifty cells are added per well in 50 μL complete growth medium in the 384-well plate. Plates are incubated for 67 hours at 37 degrees Celsius, 5% CO2, and 95% humidity. At the end of the incubation period, 10 μL of a 440 μM solution of resazurin (Sigma, St. Louis, Mo.) in PBS is added to each well of the plate and plates are incubated for an additional 5 hours at 37 degrees Celsius, 5% CO2, and 95% humidity. Plates are read on a Synergy2 reader (Biotek, Winooski, Vt.) using an excitation of 540 nm and an emission of 600 nm. Data is analyzed using Prism software (Graphpad, San Diego, Calif.) to calculate IC50 values.
(§2) The A375, HT-29, and Colo-205 cells (ATCC) harbor a V600E mutation.

[2] = test system: A375 cells; test: A375 cell proliferation assay (CellTiter-Blue/resazurin); assay type: cell-based; settings: Homo sapiens, A-375, V600E mutation, read-out: Cell Proliferation Inhibition IC50, nM A375
Protocol: as §1, with “A375” for “Colo205”, “#CRL-1619)” for “#HB-8307)”, “DMEM High Glucose” for “RPMI 1640”, “Calif.)” for “Calif.), 1 mM sodium pyruvate,”, “70-95%” for “30-60%”, “Six hundred twenty-five” for “One thousand two-hundred fifty”
as §2

[3] = test system: Sk-Mel-2 cells; test: SK-Mel-2 cell proliferation assay (resazurin); assay type: cell-based; settings: Homo sapiens, N-Ras mutation B-Raf wild type, read-out: Cell Proliferation Inhibition IC50, nM SK-Mel-2
[4] = biological target: T1, human wild type C-Raf (Homo sapiens, UniProt P04049); test: Enzymatic assay of C-Raf kinase activity (Raf/MEK1 ATPase, coupled PK/LDH, A340); assay type: biochemical; settings: read-out: Enzyme IC50, nM C-Raf
T1 construct: made in house
Protocol: Test compounds are evaluated for their inhibitory activities against one or more of human wild type B-Raf, human wild type C-Raf, human B-Raf V600E, human B-Raf V600E+T529I or human B-Raf V600E+G468A. T529I is a threonine to isoleucine B-Raf gatekeeper mutation and G468A is a B-Raf secondary mutation at G1403C in exon 11. The enzymatic assays of B-Raf, C-Raf and B-Raf mutations evaluate a property of Raf and MEK1 complex, which in the presence of ATP, catalyzes an enhanced ATP hydrolysis (Rominger, et al, Arch. Biochem. Biophys. 2007, 464: 130-137; US Patent Publication No. 2006/0211073). The ADP formed is monitored by the well-known coupled PK/LDH (pyruvate kinase/lactate dehydrogenase) system in the form of NADH oxidation, which can be monitored and detected spectrophotometrically by absorbance at 340 nm (A340; for principal of the method see Schindler et al, Science, 2000, 289: 1938-1942). Raf activated MEK1 ATPase activity is a property shared by all forms of Raf proteins.
Test compounds are evaluated for their inhibitory activities against one or more of wild type B-Raf, wild type C-Raf, B-Raf V600E, B-Raf V600E+T529I and B-Raf V600E+G468A. T529I is a B-Raf gatekeeper mutation and G468A is a B-Raf secondary mutation. The enzymatic assays of B-Raf, C-Raf and B-Raf mutations evaluate a property of Raf and MEK1 complex, which in the presence of ATP, catalyzes an enhanced ATP hydrolysis (Rominger, et al, Arch. Biochem. Biophys. 2007, 464: 130-137). The ADP formed is monitored by the well-known coupled PK/LDH (pyruvate kinase/lactate dehydrogenase) system in the form of NADH oxidation, which can be monitored and detected by absorbance at 340 nm (A340; for principal of the method see Schindler et al, Science, 2000, 289: 1938-1942). Raf activated MEK1 ATPase activity is a property shared by all forms of Raf proteins. In the B-Raf wild type enzymatic assay, the reaction mixture contains 1.2 nM B-Raf, 30 nM MEK1, 1000 uM ATP, 3.5 units (per 100 ul) of PK, 5 units (per 100 ul) of LDH, 1 mM phosphoenol pyruvate (PEP), and 280 uM of NADH. In the C-Raf assay, the reaction mixture contains 0.6 nM C-Raf, 26 nM MEK1, 2000 uM ATP, and the same amount of PK, LDH, PEP and NADH as above. In the B-Raf V600E assay, the reaction mixture contains […] B-Raf V600E, 26 nM MEK1, 200 uM ATP and the same amount of PK, LDH, PEP and NADH as above. In the B-RafV600E+T529I assay, the reaction mixture contains 6.2 nM B-Raf V600E+T529I, 30 nM MEK1, 200 uM ATP and the same amount of PK, LDH, PEP and NADH as above. In the B-Raf V600E+G468A assay, the reaction mixture contains 3.5 nM B-Raf, 30 nM MEK1, 200 uM ATP and the same amount of PK, LDH, PEP and NADH as above. All assays are started by mixing the above mixture with test compound and monitoring at A340 continuously for approximately 5 hr. […] In the aforementioned assays, the enzyme constructs can be screened prior to or after cleavage of the N-terminal purification tag.

T1 sequence (P04049 whole entry): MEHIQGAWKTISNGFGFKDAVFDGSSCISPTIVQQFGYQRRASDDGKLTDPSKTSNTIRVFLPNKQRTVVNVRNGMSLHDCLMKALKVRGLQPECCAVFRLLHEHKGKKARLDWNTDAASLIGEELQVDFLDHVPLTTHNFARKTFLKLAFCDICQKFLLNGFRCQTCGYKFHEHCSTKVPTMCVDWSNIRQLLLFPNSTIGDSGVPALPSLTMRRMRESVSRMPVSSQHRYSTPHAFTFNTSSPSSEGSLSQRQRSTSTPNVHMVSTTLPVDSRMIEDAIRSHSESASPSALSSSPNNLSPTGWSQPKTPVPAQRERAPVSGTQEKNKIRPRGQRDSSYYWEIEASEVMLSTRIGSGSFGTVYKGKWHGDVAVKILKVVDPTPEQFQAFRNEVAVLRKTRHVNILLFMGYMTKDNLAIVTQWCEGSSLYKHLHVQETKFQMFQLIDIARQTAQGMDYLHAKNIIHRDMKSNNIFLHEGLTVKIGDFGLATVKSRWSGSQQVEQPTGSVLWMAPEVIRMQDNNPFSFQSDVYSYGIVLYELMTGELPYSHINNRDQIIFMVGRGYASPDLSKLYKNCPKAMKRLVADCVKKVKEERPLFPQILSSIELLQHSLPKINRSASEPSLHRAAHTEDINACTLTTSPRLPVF

Row | Structure (SMILES) | IC50 [1] [nM] | IC50 [2] [nM] | IC50 [3] [nM] | IC50 [4] [nM]
1 | Cc1cc(F)c(NC(=O)NCCC(C)(C)C)cc1-c1cc2cnc(NCCN(C)C)nc2nc1C [Example 17, 1-[5-[2-(2-Dimethylaminoethylamino)-7-methyl-pyrido[2,3-d]pyrimidin-6-yl]-2-fluoro-4-methyl-phenyl]-3-(3,3-dimethylbutyl)urea] | < 100 | < 100 | 100 to 1000 | < 150
2 | Cc1cc(F)c(NC(=O)NCCC(C)(C)C)cc1-c1cc2cnc(NCCN3CCOCC3)nc2nc1C [Example 21, 1-(3,3-Dimethylbutyl)-3-(2-fluoro-4-methyl-5-(7-methyl-2-((2-morpholinoethyl)amino)pyrido[2,3-d]pyrimidin-6-yl)phenyl)ure] | < 100 | < 100 | 100 to 1000 | < 150
3 | Cc1cc(F)c(NC(=O)NCCC(C)(C)C)cc1-c1cc2cnc(NCc3cn(C)cn3)nc2nc1C [Example 22, 1-(3,3-Dimethylbutyl)-3-(2-fluoro-4-methyl-5-(7-methyl-2-(((1-methyl-1H-imidazol-4-yl)methyl)amino)pyrido[2,3-d]pyrimidin-6-yl)phenyl)urea] | < 100 | < 100 | 100 to 1000 | < 150
4 | CNc1ncc2cc(-c3cc(NC(=O)NCCC4(C)CC4)c(F)cc3C)c(C)nc2n1 [Example 24, 1-(2-Fluoro-4-methyl-5-(7-methyl-2-(methylamino)pyrido[2,3-d]pyrimidin-6-yl)phenyl)-3-(2-(1-methylcyclopropyl)ethyl)urea] | < 100 | < 100 | 100 to 1000 | < 150
5 | CCNc1ncc2cc(-c3cc(NC(=O)NCCC(C)(C)F)c(F)cc3C)c(C)nc2n1 [Example 26, 1-(5-(2-(Ethylamino)-7-methylpyrido[2,3-d]pyrimidin-6-yl)-2-fluoro-4-methylphenyl)-3-(3-fluoro-3-methylbutyl)urea] | 100 to 1000 | 100 to 1000 | 100 to 1000 | < 150
6 | CNc1ncc2cc(-c3cc(NC(=O)NCCC(C)(C)C(F)(F)F)c(F)cc3C)c(C)nc2n1 [Example 27, 1-(2-Fluoro-4-methyl-5-(7-methyl-2-(methylamino)pyrido[2,3-d]pyrimidin-6-yl)phenyl)-3-(4,4,4-trifluoro-3,3-dimethylbutyl)urea] | < 100 | < 100 | 100 to 1000 | < 150
7 | Cc1cc(F)c(NC(=O)NCCC(C)(C)F)cc1-c1cc2cnc(NCCO)nc2nc1C [Example 29, 1-(3-Fluoro-3-methylbutyl)-3-(2-fluoro-5-(2-((2-hydroxyethyl)amino)-7-methylpyrido[2,3-d]pyrimidin-6-yl)-4-methylphenyl)urea] | 100 to 1000 | 1000 to 10000 | 1000 to 10000 | < 150

The next lines start with the values.

Row | IC50 [1] [nM] | IC50 [2] [nM] | IC50 [3] [nM] | IC50 [4] [nM] | Structure (SMILES)
8 | < 100 | 100 to 1000 | 100 to 1000 | < 150 | CNc1ncc2cc(-c3cc(NC(=O)NC[C@H](O)C(C)(C)C)c(F)cc3C)cnc2n1 [Example 18, 1-[2-Fluoro-4-methyl-5-(2-methylaminopyrido[2,3-d]pyrimidin-6-yl)phenyl]-3-[(2R)-2-hydroxy-3,3-dimethyl-butyl]urea]
9 | 100 to 1000 | 100 to 1000 | 100 to 1000 | < 150 | CNc1ncc2cc(-c3cc(NC(=O)NC[C@@H](O)C(C)(C)C)c(F)cc3C)cnc2n1 [Example 19, 1-[2-fluoro-4-methyl-5-(2-methylaminopyrido[2,3-d]pyrimidin-6-yl)phenyl]-3-[(2S)-2-hydroxy-3,3-dimethyl-butyl]urea]
10 | < 100 | < 100 | < 100 | < 150 | Cc1cc(F)c(NC(=O)NCCC(C)(C)C)cc1-c1cc2cnc(N)nc2nc1C [Example 20, 1-(5-(2-Amino-7-methylpyrido[2,3-d]pyrimidin-6-yl)-2-fluoro-4-methylphenyl)-3-(3,3-dimethylbutyl)urea]
11 | < 100 | 100 to 1000 | 100 to 1000 | < 150 | Cc1cc(F)c(NC(=O)NCCC2(C)CC2)cc1-c1cc2cnc(N)nc2nc1C [Example 23, 1-(5-(2-Amino-7-methylpyrido[2,3-d]pyrimidin-6-yl)-2-fluoro-4-methylphenyl)-3-(2-(1-methylcyclopropyl)ethyl)urea]
12 | < 100 | < 100 | 100 to 1000 | < 150 | Cc1cc(F)c(NC(=O)NCCC(C)(C)F)cc1-c1cc2cnc(NC3COC3)nc2nc1C [Example 25, 1-(3-Fluoro-3-methylbutyl)-3-(2-fluoro-4-methyl-5-(7-methyl-2-(oxetan-3-ylamino)pyrido[2,3-d]pyrimidin-6-yl)phenyl)urea]
13 | 100 to 1000 | 1000 to 10000 | 1000 to 10000 | < 150 | Cc1cc(F)c(NC(=O)NCCC(C)(C)F)cc1-c1cc2cnc(N)nc2nc1C [Example 28, 1-(5-(2-Amino-7-methylpyrido[2,3-d]pyrimidin-6-yl)-2-fluoro-4-methylphenyl)-3-(3-fluoro-3-methylbutyl)urea]
14 | < 100 | < 100 | 100 to 1000 | < 150 | CNc1ncc2cc(-c3cc(NC(=O)NCCC4(C(F)(F)F)CC4)c(F)cc3C)c(C)nc2n1 [Example 30, 1-(2-Fluoro-4-methyl-5-(7-methyl-2-(methylamino)pyrido[2,3-d]pyrimidin-6-yl)phenyl)-3-(2-(1-(trifluoromethyl)cyclopropyl)ethyl)urea]

Source: patent US9334267B2, “RAF inhibitor compounds” (Deciphera Pharmaceuticals, LLC, priority 2012, dated 2016)
